# Tests used:
# Neutrophil collagenase = Neutrophil collagenase (Homo sapiens, UniProt P22894); experiment: Inhibition of Matrix metalloprotease-8
# Stromelysin-1 = Stromelysin-1 (Homo sapiens, UniProt P08254); experiment: Inhibition of Matrix metalloprotease-3
# Interstitial collagenase = biological target: T1, Interstitial collagenase (Homo sapiens, UniProt P03956); experiment: Inhibition of Matrix metalloprotease-1
# T1 sequence (P03956 whole entry): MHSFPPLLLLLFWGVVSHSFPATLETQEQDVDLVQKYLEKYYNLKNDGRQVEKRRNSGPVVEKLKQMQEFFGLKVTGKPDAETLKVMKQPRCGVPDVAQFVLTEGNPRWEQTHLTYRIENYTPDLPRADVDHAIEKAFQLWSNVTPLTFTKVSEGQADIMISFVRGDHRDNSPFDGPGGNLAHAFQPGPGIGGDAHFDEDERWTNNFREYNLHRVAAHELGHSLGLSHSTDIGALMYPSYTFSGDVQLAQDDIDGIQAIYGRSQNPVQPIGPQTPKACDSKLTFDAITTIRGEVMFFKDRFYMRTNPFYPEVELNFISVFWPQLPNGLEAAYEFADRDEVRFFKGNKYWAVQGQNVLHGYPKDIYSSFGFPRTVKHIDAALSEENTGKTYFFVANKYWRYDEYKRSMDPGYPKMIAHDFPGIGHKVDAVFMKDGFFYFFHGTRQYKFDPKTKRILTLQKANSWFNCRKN
# [1] = biological target: Matrix metalloproteinase-9 (Homo sapiens, UniProt P14780); experiment: Inhibition of Matrix metalloprotease-9
# [2] = biological target: 72 kDa type IV collagenase (Homo sapiens, UniProt P08253); experiment: Inhibition of Matrix metalloprotease-2
# Chain of 72 kDa type IV collagenase (P08253 whole entry): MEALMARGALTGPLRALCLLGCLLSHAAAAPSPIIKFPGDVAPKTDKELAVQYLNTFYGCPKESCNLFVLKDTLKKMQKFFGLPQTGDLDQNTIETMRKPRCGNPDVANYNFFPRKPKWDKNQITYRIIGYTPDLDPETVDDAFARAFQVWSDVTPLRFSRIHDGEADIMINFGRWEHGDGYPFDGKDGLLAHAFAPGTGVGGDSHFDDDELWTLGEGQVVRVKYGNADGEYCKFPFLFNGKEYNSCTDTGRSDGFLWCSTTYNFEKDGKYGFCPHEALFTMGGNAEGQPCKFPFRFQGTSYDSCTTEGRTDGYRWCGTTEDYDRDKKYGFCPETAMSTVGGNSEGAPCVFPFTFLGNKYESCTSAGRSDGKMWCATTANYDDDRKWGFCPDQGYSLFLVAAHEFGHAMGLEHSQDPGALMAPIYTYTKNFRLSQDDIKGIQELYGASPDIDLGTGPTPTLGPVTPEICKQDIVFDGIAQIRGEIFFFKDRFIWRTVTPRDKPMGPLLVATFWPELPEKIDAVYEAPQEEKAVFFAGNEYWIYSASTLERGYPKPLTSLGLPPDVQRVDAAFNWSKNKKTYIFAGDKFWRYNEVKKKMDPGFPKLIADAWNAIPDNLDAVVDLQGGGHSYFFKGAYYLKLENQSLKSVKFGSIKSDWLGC
# Chain of Stromelysin-1 (P08254 whole entry): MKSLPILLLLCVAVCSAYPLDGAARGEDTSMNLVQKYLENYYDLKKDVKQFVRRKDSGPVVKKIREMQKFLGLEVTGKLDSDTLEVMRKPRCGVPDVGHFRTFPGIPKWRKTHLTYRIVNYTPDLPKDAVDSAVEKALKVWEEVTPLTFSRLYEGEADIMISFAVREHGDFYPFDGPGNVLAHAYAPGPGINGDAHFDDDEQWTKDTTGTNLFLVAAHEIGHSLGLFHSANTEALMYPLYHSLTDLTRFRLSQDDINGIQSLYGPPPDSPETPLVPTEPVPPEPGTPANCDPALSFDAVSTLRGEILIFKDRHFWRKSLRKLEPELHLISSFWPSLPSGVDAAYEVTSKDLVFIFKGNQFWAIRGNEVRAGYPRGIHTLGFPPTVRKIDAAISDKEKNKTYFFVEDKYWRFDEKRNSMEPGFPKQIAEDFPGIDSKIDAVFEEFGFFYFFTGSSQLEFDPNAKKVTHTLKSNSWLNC
# Chain of Matrix metalloproteinase-9 (P14780 whole entry): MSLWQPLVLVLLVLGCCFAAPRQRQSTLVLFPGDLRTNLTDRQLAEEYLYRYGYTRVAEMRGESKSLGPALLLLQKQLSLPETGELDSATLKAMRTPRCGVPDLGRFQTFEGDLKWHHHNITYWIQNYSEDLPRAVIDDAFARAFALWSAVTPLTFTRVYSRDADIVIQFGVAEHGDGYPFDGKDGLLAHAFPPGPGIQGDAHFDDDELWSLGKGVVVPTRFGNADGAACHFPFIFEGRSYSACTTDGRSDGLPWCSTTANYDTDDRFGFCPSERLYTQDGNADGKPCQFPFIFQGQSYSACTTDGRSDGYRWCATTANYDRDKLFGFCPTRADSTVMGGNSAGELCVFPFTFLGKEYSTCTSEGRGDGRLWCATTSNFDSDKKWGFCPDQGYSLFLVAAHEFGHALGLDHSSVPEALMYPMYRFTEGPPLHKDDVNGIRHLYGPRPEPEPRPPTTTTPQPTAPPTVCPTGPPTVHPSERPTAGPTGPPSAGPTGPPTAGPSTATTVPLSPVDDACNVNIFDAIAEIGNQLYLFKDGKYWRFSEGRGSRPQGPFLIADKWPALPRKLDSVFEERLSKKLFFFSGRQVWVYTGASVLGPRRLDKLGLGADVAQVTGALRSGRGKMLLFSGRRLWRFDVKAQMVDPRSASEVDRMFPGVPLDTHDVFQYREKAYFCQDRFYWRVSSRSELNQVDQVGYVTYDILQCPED
# Chain of Neutrophil collagenase (P22894 whole entry): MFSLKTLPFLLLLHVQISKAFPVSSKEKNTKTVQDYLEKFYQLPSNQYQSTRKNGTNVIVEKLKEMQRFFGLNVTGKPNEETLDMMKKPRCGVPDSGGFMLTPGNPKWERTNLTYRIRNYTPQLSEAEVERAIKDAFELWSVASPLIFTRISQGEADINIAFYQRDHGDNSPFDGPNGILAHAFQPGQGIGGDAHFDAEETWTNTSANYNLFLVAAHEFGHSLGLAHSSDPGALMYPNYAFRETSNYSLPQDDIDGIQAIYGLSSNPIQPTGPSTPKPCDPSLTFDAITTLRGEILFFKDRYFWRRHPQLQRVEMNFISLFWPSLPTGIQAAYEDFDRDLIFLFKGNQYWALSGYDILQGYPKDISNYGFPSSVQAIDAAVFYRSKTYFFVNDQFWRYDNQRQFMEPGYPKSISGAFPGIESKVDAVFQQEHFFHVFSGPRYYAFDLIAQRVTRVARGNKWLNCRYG
Ki (Neutrophil collagenase),Ki (Stromelysin-1),Ki (Interstitial collagenase),Ki [1],Ki [2],Compound
531 nM,35 µM,900 nM,9.8 µM,2400 nM,CNC(=O)[C@@H]1CCCCNC(=O)C[C@H](C(=O)O)N[C@@H](CCc2ccccc2)C(=O)N1
10 nM,2.9 µM,8400 nM,5.8 µM,238 nM,CNC(=O)[C@@H]1CCC(=O)OCCNC(=O)CC[C@H](C(=O)O)N[C@@H](CCc2ccccc2)C(=O)N1
17 nM,13.5 µM,,6.6 µM,8100 nM,CNC(=O)[C@@H]1CCCCNC(=O)CC[C@H](C(=O)O)N[C@@H](CCc2ccccc2)C(=O)N1
9 nM,2.4 µM,1450 nM,0.288 µM,249 nM,CNC(=O)[C@@H]1CCCCNC(=O)CC[C@H](C(=O)O)N[C@@H](CCc2ccc(-c3ccccc3)cc2)C(=O)N1
293 nM,14.1 µM,,0.404 µM,1530 nM,CNC(=O)CC[C@@H](N[C@@H](CCc1ccccc1)C(=O)N[C@@H](CCCCNC(C)=O)C(=O)NC)C(=O)O
